Measured values published in article PMC6199744, “Development of Chemical Proteomics for the Folateome and Analysis of the Kinetoplastid Folateome” (ACS Infectious Diseases, 2018).
Where two headings read alike, the source gives them in different places.

Experiments:
Type in all cases: binding
[1] = molecular target: T1, HeLa cell extract proteins (Homo sapiens, UniProt P30405); settings: protein PPIF; HeLa
T1 construct: endogenous in cells; host or cells: HeLa cell extract

[2] = molecular target: T2, HeLa cell extract proteins (Homo sapiens, UniProt P40938)
T2 construct: endogenous in cells; host or cells: HeLa cell extract
T2 sequence (P40938 whole entry): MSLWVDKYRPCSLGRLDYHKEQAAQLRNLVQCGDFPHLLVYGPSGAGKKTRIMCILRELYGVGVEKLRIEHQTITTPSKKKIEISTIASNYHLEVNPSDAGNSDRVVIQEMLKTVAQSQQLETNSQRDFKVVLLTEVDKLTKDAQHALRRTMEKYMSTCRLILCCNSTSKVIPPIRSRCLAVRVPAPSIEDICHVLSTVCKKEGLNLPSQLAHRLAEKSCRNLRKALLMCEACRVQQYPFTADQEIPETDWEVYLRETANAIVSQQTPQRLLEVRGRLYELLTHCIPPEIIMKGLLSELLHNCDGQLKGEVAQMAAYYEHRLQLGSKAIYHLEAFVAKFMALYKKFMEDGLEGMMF

[3] = molecular target: T3, HeLa cell extract proteins (Homo sapiens, UniProt P52292)
T3 construct: endogenous in cells; host or cells: HeLa cell extract

[4] = molecular target: T4, HeLa cell extract proteins (Homo sapiens, UniProt P55084)
T4 construct: endogenous in cells; host or cells: HeLa cell extract
T4 sequence (P55084 34-474): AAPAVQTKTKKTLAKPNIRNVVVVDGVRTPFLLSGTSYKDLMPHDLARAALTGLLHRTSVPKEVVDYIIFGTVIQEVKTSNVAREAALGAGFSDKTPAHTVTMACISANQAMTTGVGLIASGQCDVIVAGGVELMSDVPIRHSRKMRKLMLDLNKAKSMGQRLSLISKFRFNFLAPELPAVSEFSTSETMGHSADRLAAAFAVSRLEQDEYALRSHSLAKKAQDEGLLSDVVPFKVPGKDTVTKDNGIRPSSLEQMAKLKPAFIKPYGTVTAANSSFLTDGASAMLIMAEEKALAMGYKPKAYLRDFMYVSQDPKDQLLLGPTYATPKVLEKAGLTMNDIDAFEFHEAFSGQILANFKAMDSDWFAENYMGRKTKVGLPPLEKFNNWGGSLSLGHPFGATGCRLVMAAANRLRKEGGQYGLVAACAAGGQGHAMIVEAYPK

[5] = molecular target: T5, HeLa cell extract proteins (Homo sapiens, UniProt Q9NWZ8)
T5 construct: endogenous in cells; host or cells: HeLa cell extract
T5 sequence (Q9NWZ8 1-242): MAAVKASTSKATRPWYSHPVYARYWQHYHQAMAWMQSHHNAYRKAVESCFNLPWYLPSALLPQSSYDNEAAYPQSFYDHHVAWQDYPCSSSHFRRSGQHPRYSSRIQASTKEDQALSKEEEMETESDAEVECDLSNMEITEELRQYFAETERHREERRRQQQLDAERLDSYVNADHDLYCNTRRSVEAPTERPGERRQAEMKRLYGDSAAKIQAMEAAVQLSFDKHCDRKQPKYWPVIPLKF

[6] = molecular target: T6, HeLa cell extract proteins (Homo sapiens, UniProt Q9P2E9)
T6 construct: endogenous in cells; host or cells: HeLa cell extract
T6 sequence (Q9P2E9 1-1410): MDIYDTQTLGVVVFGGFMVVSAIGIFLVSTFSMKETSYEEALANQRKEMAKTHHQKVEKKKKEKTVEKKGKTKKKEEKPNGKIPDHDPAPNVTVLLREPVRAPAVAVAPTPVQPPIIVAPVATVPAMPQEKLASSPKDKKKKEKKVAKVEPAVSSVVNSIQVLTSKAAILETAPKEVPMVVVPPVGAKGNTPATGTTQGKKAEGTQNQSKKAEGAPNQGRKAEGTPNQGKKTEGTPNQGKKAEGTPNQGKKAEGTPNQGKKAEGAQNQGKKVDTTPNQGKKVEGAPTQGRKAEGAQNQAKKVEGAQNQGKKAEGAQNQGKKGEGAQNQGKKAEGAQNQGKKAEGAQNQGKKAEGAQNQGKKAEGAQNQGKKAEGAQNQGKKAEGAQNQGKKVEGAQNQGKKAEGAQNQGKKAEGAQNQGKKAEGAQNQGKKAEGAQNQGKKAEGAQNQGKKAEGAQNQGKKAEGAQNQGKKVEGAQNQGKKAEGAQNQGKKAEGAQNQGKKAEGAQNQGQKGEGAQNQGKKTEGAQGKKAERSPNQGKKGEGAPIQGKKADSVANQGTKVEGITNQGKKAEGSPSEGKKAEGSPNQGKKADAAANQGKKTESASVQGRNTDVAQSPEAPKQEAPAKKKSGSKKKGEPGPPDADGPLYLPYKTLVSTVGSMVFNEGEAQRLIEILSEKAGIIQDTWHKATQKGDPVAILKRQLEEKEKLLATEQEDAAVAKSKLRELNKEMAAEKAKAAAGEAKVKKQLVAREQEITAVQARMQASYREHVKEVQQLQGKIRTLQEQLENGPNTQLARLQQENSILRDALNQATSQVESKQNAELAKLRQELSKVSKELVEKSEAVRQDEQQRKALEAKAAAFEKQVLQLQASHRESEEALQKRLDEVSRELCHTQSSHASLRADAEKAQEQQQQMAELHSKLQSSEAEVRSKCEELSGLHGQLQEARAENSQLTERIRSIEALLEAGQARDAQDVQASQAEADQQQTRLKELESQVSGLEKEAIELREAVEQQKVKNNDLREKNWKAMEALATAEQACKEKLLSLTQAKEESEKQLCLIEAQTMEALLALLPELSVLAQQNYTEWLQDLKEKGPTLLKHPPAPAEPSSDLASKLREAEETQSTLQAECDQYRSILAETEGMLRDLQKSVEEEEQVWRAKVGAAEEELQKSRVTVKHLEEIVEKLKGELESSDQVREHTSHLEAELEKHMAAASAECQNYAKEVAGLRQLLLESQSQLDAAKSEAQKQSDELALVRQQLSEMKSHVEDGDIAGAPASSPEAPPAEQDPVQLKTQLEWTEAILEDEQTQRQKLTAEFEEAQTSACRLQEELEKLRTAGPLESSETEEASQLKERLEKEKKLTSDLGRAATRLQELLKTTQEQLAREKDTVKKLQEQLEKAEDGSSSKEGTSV

[7] = molecular target: T7, HeLa cell extract proteins (Homo sapiens, UniProt Q9UHD8)
T7 construct: endogenous in cells; host or cells: HeLa cell extract
T7 sequence (Q9UHD8 1-586): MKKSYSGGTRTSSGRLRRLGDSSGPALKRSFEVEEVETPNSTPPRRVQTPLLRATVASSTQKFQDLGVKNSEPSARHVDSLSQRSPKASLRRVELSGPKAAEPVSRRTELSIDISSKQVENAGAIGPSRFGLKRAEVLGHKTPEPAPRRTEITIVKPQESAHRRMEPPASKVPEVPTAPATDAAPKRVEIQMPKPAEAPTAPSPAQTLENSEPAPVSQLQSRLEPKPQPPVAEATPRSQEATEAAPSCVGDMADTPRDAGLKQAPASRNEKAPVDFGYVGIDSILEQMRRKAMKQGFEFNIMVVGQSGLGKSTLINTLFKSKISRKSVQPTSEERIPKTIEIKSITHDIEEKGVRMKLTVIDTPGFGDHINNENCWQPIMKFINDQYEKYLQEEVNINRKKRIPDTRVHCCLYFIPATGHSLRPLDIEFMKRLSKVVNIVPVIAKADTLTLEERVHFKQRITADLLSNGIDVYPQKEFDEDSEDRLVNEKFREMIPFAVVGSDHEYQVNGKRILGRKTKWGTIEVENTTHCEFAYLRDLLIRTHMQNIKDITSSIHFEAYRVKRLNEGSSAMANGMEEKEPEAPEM

[8] = molecular target: T8, HeLa cell extract proteins (Homo sapiens, UniProt Q9Y490)
T8 construct: endogenous in cells; host or cells: HeLa cell extract
T8 sequence (Q9Y490 whole entry): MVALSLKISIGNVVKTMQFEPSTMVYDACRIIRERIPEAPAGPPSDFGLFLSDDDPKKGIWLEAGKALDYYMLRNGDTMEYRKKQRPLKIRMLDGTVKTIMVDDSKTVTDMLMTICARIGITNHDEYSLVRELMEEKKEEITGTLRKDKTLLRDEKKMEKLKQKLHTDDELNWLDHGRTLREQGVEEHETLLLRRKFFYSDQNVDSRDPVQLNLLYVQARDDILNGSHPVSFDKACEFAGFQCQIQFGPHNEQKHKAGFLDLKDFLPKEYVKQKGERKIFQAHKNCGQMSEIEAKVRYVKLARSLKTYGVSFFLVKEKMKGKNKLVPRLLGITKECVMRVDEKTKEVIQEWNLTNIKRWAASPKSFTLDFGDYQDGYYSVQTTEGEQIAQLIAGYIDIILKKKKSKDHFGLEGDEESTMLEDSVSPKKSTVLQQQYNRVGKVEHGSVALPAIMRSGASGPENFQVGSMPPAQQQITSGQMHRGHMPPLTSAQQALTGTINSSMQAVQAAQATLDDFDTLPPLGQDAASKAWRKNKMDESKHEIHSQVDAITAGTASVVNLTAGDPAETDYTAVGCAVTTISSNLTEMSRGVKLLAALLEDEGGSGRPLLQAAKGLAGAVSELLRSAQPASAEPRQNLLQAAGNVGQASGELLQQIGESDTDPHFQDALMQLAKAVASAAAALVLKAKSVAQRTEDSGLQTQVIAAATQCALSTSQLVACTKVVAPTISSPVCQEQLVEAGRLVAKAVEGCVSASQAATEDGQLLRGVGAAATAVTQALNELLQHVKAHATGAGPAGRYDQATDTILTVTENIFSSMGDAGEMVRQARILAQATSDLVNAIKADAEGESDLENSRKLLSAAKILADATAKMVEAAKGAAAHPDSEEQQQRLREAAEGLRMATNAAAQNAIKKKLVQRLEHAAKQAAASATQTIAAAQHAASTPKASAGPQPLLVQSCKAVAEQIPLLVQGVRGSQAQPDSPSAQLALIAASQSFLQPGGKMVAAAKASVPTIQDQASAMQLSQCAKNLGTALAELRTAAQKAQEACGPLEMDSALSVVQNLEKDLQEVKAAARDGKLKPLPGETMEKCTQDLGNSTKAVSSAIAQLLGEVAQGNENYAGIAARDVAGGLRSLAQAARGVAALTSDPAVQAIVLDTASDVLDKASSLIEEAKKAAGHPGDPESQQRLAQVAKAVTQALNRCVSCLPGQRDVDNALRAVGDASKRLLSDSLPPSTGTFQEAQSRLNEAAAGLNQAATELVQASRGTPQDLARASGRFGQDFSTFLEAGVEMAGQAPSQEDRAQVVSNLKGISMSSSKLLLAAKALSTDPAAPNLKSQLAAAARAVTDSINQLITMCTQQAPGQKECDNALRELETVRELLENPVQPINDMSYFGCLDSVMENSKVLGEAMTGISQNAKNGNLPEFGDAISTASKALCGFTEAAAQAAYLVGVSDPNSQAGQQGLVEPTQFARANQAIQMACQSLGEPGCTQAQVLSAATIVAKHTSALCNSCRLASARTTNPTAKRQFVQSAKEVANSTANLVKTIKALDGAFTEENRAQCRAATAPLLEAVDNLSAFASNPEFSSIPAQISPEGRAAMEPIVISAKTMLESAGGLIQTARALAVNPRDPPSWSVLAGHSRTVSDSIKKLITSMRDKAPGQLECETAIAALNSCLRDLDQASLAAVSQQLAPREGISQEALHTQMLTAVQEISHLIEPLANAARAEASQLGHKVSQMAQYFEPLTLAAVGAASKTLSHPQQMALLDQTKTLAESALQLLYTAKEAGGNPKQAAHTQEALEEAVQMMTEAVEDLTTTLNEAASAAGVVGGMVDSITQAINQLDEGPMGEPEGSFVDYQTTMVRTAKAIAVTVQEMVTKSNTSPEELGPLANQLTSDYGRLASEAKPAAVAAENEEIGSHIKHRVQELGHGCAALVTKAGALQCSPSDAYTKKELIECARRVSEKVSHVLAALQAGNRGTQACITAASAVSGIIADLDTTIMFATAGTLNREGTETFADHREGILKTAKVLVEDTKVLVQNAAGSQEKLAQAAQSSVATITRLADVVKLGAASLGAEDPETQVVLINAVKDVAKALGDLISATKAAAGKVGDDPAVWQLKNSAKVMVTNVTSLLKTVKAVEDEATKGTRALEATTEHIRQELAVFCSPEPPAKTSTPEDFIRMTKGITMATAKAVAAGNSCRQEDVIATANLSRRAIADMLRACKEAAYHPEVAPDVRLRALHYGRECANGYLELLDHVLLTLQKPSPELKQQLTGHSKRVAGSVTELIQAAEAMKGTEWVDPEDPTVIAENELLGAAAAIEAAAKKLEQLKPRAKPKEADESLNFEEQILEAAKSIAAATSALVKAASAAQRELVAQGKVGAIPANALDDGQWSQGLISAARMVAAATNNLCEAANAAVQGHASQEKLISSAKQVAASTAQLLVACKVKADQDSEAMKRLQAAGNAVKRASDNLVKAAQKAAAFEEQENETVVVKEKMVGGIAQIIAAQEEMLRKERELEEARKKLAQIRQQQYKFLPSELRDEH

T1 sequence (P30405 30-207): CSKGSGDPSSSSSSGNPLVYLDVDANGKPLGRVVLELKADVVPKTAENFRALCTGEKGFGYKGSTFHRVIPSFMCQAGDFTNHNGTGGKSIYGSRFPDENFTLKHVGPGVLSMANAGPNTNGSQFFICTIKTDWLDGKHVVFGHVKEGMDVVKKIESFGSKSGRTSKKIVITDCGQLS

Structure (SMILES) | fold changes relative to vehicle control [1] | fold changes relative to vehicle control ([2]; HeLa, protein RFC3) | fold changes relative to vehicle control ([3]; HeLa, captured protein KPNA2) | fold changes relative to vehicle control ([4]; HeLa, protein HADHB) | fold changes relative to vehicle control ([5]; HeLa, protein GEMIN8) | fold changes relative to vehicle control ([6]; HeLa, protein RRBP1) | fold changes relative to vehicle control ([7]; protein SEPT9, HeLa) | fold changes relative to vehicle control ([8]; protein TLN1, HeLa) | further results
Nc1nc2cccc(-c3ccccc3)c2n1Cc1ccc(Cl)c(Cl)c1 [compound 3] | 0.95 |  |  |  |  |  |  |  | 
NCCOCCOCC(=O)Nc1nc2ncc(CNc3ccc(C(=O)NC(CCC(=O)O)C(=O)O)cc3)nc2c(=O)[nH]1 (stereo not shown) [compound 6] |  | 1.14 | 1.13 | 1.12 | 0.8 | 1.35 | 1 | 0.72 | 
Nc1nc2[nH]cc(CCc3ccc(C(=O)N[C@@H](CCC(=O)O)C(=O)O)cc3)c2c(=O)[nH]1 [PTX, pemetrexed] |  |  |  |  |  |  |  |  | fold changes relative to vehicle control [2]: 1.01; fold changes relative to vehicle control [3]: 1; fold changes relative to vehicle control [4]: 0.94; fold changes relative to vehicle control [5]: 0.97; fold changes relative to vehicle control [6]: 1.03; fold changes relative to vehicle control [7]: 0.96; fold changes relative to vehicle control [8]: 1.01
Nc1nc2c(c(=O)[nH]1)N(C=O)C(CNc1ccc(C(=O)N[C@@H](CCC(=O)O)C(=O)O)cc1)CN2 (stereo partly shown) [LEU, leucovorin] |  | 0.99 | 1.01 | 0.85 | 0.97 | 1.08 | 0.93 | 0.67 | 
CCCCCCOc1ccc(Cc2cnc(N)nc2N)cc1 [compound 1] | 1.23 |  |  |  |  |  |  |  | 
NCCCNc1ccc(C(=O)NC(CCC(=O)O)C(=O)O)cc1 (stereo not shown) [compound 7] |  | 1.16 | 0.99 | 1.04 | 0.86 | 1 | 0.92 | 0.78 | 
CCCCCCOc1cccc(Cc2cnc(N)nc2N)c1 [compound 2] | 1.79 |  |  |  |  |  |  |  | 
